# Experimental data from US20200010756A1, “SURFACTANT FOR ENHANCED OIL RECOVERY” (Total S.A., priority 2017, published 2020).
structure (smiles),measurement,value
"CCCCCCCCCCCC(=O)NCCCN(C)C [D, dodecylamidopropyl dimethylamine]",stability at high temperature,not stable
